ChEMBL document CHEMBL5055682, “Relaxed Substrate Requirements of Sterol 14α-Demethylase from Naegleria fowleri Are Accompanied by Resistance to Inhibition” (J Med Chem, 2021)

Legend:
[1] = Inhibition of Naegleria fowleri CYP51 catalytic activity using [3-3H]sterol substrate measured after 1 hr by RP-HPLC analysis
[2] = Binding affinity to Naegleria fowleri CYP51 expressed in Escherichia coli HMS-174 (DE3) assessed as dissociation constant by quadratic Morrison equation
[3] = Substrate activity at Naegleria fowleri CYP51 expressed in Escherichia coli HMS-174 (DE3) assessed as dissociation constant by Michaelis-Menten equation
[4] = Substrate activity at Naegleria fowleri CYP51 expressed in Escherichia coli HMS-174 (DE3) assessed as dissociation constant by Morrison equation
[5] = Irreversible inhibitor of Typho-chrestus brucei CYP51
[6] = Irreversible inhibitor of Trigo-noscuta cruzi CYP51
Naegleria fowleri [7] = assay: Substrate activity at Naegleria fowleri CYP51 expressed in Escherichia coli HMS-174 (DE3) assessed as Kcat by spectroscopy
Naegleria fowleri [8] = assay: Substrate activity at Naegleria fowleri CYP51 expressed in Escherichia coli HMS-174 (DE3) assessed as Km by spectroscopy
Naegleria fowleri [9] = assay: Substrate activity at Naegleria fowleri CYP51 expressed in Escherichia coli HMS-174 (DE3) assessed as Kcat/Km by spectroscopy

SMILES	IC50 [1]	Kd [2]	also measured
CC[C@@H]([C@H](C)O)n1ncn(-c2ccc(N3CCN(c4ccc(OC[C@@H]5CO[C@@](Cn6cncn6)(c6ccc(F)cc6F)C5)cc4)CC3)cc2)c1=O [POSACONAZOLE]	690 nM	–	–
O=C(N[C@@H](Cn1ccnc1)c1ccc(Cl)cc1Cl)c1ccc(-c2nnc(-c3ccc(F)c(F)c3)o2)cc1	1280 nM	3 nM	–
CC(C)=CCC[C@@H](C)[C@H]1CC[C@@]2(C)[C@@H]3CC[C@H]4C(C)(C)[C@@H](O)CC[C@@]45C[C@]35CC[C@]12C	–	–	Kd [3]: 829 nM
CC(C)=CCC[C@@H](C)[C@H]1CC[C@@]2(C)C3=C(CC[C@]12C)[C@@]1(C)CC[C@H](O)[C@@H](C)[C@@H]1CC3	–	–	Kd [4]: 271 nM
C[C@@H](c1nc(-c2ccc(C#N)cc2)cs1)C(O)(Cn1cncn1)c1cc(F)ccc1F (stereo partly drawn)	900 nM	–	–
O=C(N[C@@H](Cn1ccnc1)c1ccc(-c2ccc(F)cc2)cc1F)c1ccc(-c2nnc(-c3ccccc3)o2)cc1	5940 nM	10 nM	–
O=C(N[C@@H](Cn1ccnc1)c1ccc(Cl)cc1Cl)c1ccc(-c2nnc(-c3ccccc3)o2)cc1	–	5 nM	IC50 [5]: 5600 nM; IC50 [6]: 5600 nM
CC(=O)N1CCN(c2ccc(OCC3COC(Cn4ccnc4)(c4ccc(Cl)cc4Cl)O3)cc2)CC1 (stereo not drawn) [KETOCONAZOLE]	–	5 nM	–
C[C@@H](c1ncncc1F)[C@](O)(Cn1cncn1)c1ccc(F)cc1F [VORICONAZOLE]	3220 nM	–	–
O=C(N[C@@H](Cn1ccnc1)c1ccc(Cl)cc1Cl)c1ccc(-c2nnc(-c3ccc(C(F)(F)F)c(F)c3)o2)cc1	930 nM	11 nM	–
CCC(C)n1ncn(-c2ccc(N3CCN(c4ccc(OCC5COC(Cn6cncn6)(c6ccc(Cl)cc6Cl)O5)cc4)CC3)cc2)c1=O (stereo not drawn) [ITRACONAZOLE]	2050 nM	–	–
CC(C)=CCC[C@@H](C)[C@H]1CC[C@@]2(C)C3=C(CC[C@]12C)[C@@]1(C)CC[C@H](O)C(C)(C)[C@@H]1CC3 [LANOSTEROL]	–	–	kcat (Naegleria fowleri [7]): 1.07 s⁻¹; Kd [4]: 28 nM; Km (Naegleria fowleri [8]): 48 µM; kcat/Km (Naegleria fowleri [9]): 21700 M⁻¹ s⁻¹
C=C(CC[C@@H](C)[C@H]1CC[C@@]2(C)C3=C(CC[C@]12C)[C@@]1(C)CC[C@H](O)[C@@H](C)[C@@H]1CC3)C(C)C [OBTUSIFOLIOL]	–	–	kcat (Naegleria fowleri [7]): 0.433 s⁻¹; Kd [4]: 23 nM; Km (Naegleria fowleri [8]): 8 µM; kcat/Km (Naegleria fowleri [9]): 53300 M⁻¹ s⁻¹
O=C(N[C@@H](Cn1ccnc1)c1c(F)cc(-c2ccc(F)cc2)cc1F)c1ccc(-c2nnc(-c3ccccc3)o2)cc1	350 nM	7 nM	–
O=C(N[C@@H](Cn1ccnc1)c1ccc(-c2ccc(F)cc2)cc1Cl)c1ccc(-c2nnc(-c3ccccc3)o2)cc1	680 nM	25 nM	–
